Measurements as given in US6221865A, “Inhibitors of protein isoprenyl transferases” (priority 1998, dated 2001).
Counter-ions that a name gives are not always drawn. Like-named read-outs stand apart in the source and are kept apart here. One block for each compound: values may come before it.

Target: T1, protein farnesyltransferase (Rattus norvegicus, UniProt Q02293+Q04631)
T1 construct: The enzyme is purified according to Reiss, Y., et al., Cell, 62: 81-88 (1990), utilizing steps one through three; from tissue; host or cells: rat brain
Test: Inhibition of farnesyltransferase (scintillation proximity assay, rat brain enzyme, biotin-K Ras B fragment substrate)
Type: biochemical
Conditions: for % inhibition of farnesyltransferase at 1 × 10^-6 M / inhibition at 1 µM: 1 × 10^-6 M (Table 2); for inhibition at 1 µM: read-out: % inhibition of farnesyltransferase at 1 × 10^-6 M
Outline: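 Enzyme from rat brain, partly purified (steps one to three), assayed by SPA kit using 0.1 mM final biotin-K Ras B peptide as prenyl acceptor rather than biotin-lamin. Activity given as percent inhibition.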

[1] = read-out: % inhibition of farnesyltransferase at 1 × 10^-7 M, 1 × 10^-7 M (Table 3)
[2] = read-out: % inhibition of farnesyltransferase at 1 × 10^-8 M, 1 × 10^-8 M (Table 4)
[3] = read-out: % inhibition at 0.1 μM (*), Table 6, * = 0.1 μM (footnote), title prints 0.1 mM
[4] = read-out: % inhibition at 0.01 μM (**), Table 6, ** = 0.01 μM (footnote), title prints 0.01 mM
[5] = Table 6, ** = 0.01 μM (footnote), title prints 0.01 mM

T1 sequence (Q02293 whole entry, one chain of several): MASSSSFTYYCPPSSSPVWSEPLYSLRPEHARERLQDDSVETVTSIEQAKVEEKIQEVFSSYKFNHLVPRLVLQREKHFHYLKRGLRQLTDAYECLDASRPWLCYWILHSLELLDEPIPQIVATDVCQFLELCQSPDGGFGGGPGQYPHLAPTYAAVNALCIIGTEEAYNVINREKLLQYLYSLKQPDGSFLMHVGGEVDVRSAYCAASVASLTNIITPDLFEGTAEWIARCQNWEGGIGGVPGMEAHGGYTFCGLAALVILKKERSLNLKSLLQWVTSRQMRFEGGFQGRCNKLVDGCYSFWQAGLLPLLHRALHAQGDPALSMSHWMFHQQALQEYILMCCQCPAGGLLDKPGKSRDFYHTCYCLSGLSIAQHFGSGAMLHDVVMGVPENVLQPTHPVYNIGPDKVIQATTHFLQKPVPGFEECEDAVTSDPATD

Compound: CSCC[C@H](NC(=O)c1ccc(COCc2ccccc2C(C)C)cc1-c1ccccc1C)C(=O)[O-].[Li+] [Example 938]
% inhibition of farnesyltransferase at 1 × 10^-8 M (1 × 10^-8 M (Table 4)): 61%

Compound: CSCC[C@H](NC(=O)c1ccc(COCc2cccc(C(C)C)c2)cc1-c1ccccc1C)C(=O)[O-].[Li+] [Example 939]
% inhibition of farnesyltransferase at 1 × 10^-8 M (1 × 10^-8 M (Table 4)): 72%

Compound: CSCC[C@H](NC(=O)c1ccc(COCc2ccc(C(C)C)cc2)cc1-c1ccccc1C)C(=O)[O-].[Li+] [Example 940]
% inhibition of farnesyltransferase at 1 × 10^-7 M (1 × 10^-7 M (Table 3)): 92%

% inhibition of farnesyltransferase at 1 × 10^-7 M (1 × 10^-7 M (Table 3)): 90%
Compound: CSCC[C@H](NC(=O)c1ccc(COCc2cccc(N(C)C)c2)cc1-c1ccccc1C)C(=O)O [Example 941]

Compound: CCCCC(CCCC)OCc1ccc(C(=O)N[C@@H](CCSC)C(=O)[O-])c(-c2ccccc2C)c1.[Li+] [Example 942]
% inhibition of farnesyltransferase at 1 × 10^-8 M (1 × 10^-8 M (Table 4)): 58%

% inhibition of farnesyltransferase at 1 × 10^-8 M (1 × 10^-8 M (Table 4)): 79%
Compound: CCCCC(Cc1ccccc1Cl)OCc1ccc(C(=O)N[C@@H](CCSC)C(=O)O)c(-c2ccccc2C)c1 (some centres unmarked) [Example 943]

% inhibition of farnesyltransferase at 1 × 10^-8 M (1 × 10^-8 M (Table 4)): 88%
Compound: CCSC[C@H](CC1CCCCC1)N(C)Cc1ccc(C(=O)N[C@@H](CCSC)C(=O)O)c(-c2ccccc2C)c1 [Example 944]

% inhibition of farnesyltransferase at 1 × 10^-7 M (1 × 10^-7 M (Table 3)): 80%
Compound: CCSCC(CC1CCCCC1)N(Cc1ccc(C(=O)N[C@@H](CCSC)C(=O)O)c(-c2ccccc2C)c1)CC(C)C (some centres unmarked) [Example 945]

% inhibition of farnesyltransferase at 1 × 10^-8 M (1 × 10^-8 M (Table 4)): 52%
Compound: CCSC[C@H](CC1CCCCC1)N(C=O)Cc1ccc(C(=O)N[C@@H](CCSC)C(=O)O)c(-c2ccccc2C)c1 [Example 946]

% inhibition of farnesyltransferase at 1 × 10^-7 M (1 × 10^-7 M (Table 3)): 79%
Compound: CCSC[C@H](CC1CCCCC1)N(Cc1ccc(C(=O)N[C@@H](CCSC)C(=O)O)c(-c2ccccc2C)c1)C(C)=O [Example 947]

% inhibition of farnesyltransferase at 1 × 10^-7 M (1 × 10^-7 M (Table 3)): 75%
Compound: CCSC[C@H](CC1CCCCC1)N(Cc1ccc(C(=O)N[C@@H](CCSC)C(=O)O)c(-c2ccccc2C)c1)C(=O)OC(C)(C)C [Example 948]

% inhibition of farnesyltransferase at 1 × 10^-7 M (1 × 10^-7 M (Table 3)): 57%
Compound: CCSC[C@H](CC1CCCCC1)N(Cc1ccc(C(=O)N[C@@H](CCSC)C(=O)O)c(-c2ccccc2C)c1)C(=O)c1ccccc1 [Example 949]

% inhibition of farnesyltransferase at 1 × 10^-7 M (1 × 10^-7 M (Table 3)): 71%
Compound: CCCCS(=O)(=O)N(Cc1ccc(C(=O)N[C@@H](CCSC)C(=O)O)c(-c2ccccc2C)c1)[C@H](CSCC)CC1CCCCC1 [Example 950]

% inhibition of farnesyltransferase at 1 × 10^-7 M (1 × 10^-7 M (Table 3)): 71%
Compound: CCSC[C@H](CC1CCCCC1)N(Cc1ccc(C(=O)N[C@@H](CCSC)C(=O)O)c(-c2ccccc2C)c1)S(=O)(=O)c1ccccc1 [Example 951]

% inhibition of farnesyltransferase at 1 × 10^-5 M (1 × 10^-5 M (Table 1)): > 50%
Compound: CSCC[C@H](NC(=O)c1ccc(NC(=O)[C@@H]2C[C@@H](O)CN2)cc1-c1ccccc1)C(=O)O [Example 952]

% inhibition of farnesyltransferase at 1 × 10^-7 M (1 × 10^-7 M (Table 3)): > 50%
Compound: CSCC[C@H](NC(=O)c1ccc(NC[C@@H]2C[C@H](S)CN2)cc1-c1ccccc1)C(=O)O [Example 959]

% inhibition of farnesyltransferase at 1 × 10^-8 M (1 × 10^-8 M (Table 4)): > 50%
Compound: CSCC[C@H](NC(=O)c1ccc(NC[C@H]2NCC[C@H]2S)cc1-c1ccccc1)C(=O)O [Example 960]

% inhibition of farnesyltransferase at 1 × 10^-6 M: 26%
Compound: CSCC[C@H](NC(=O)c1ccc(NC(=O)OCCCl)cc1-c1ccccc1)C(=O)O [Example 979]

% inhibition of farnesyltransferase at 1 × 10^-6 M: 64%
Compound: CSCC[C@H](NC(=O)c1ccc(CN(C)C(C)(C)Cc2ccccc2)cc1-c1ccccc1C)C(=O)O [Example 982]

% inhibition of farnesyltransferase at 1 × 10^-8 M (1 × 10^-8 M (Table 4)): 89%
Compound: CCCCC(OCc1ccc(C(=O)N[C@@H](CCSC)C(=O)O)c(-c2ccccc2C)c1)c1cncs1 (some centres unmarked) [Example 985]

% inhibition of farnesyltransferase at 1 × 10^-8 M (1 × 10^-8 M (Table 4)): 95%
Compound: CSCC[C@H](NC(=O)c1ccc(CN(CCC2CCCCC2)Cc2cncs2)cc1-c1ccccc1C)C(=O)O [Example 986]

% inhibition of farnesyltransferase at 1 × 10^-6 M: 93%
Compound: CSCC[C@H](NC(=O)c1ccc(COC2CCN(Cc3ccccc3)C2)cc1-c1ccccc1C)C(=O)O (some centres unmarked) [Example 987]

inhibition at 1 µM: 92%
Compound: CSCC[C@H](NC(=O)c1ccc(CN2CCC(OCc3ccccc3)C2)cc1-c1ccccc1C)C(=O)O (some centres unmarked) [Example 988, N-[4-(3-benzyloxypyrrolidin-1-ylmethyl)-2-(2-methylphenyl)benzoyl]methionine]

inhibition at 1 µM: 88%
Compound: CSCC[C@H](NC(=O)c1ccc(CN2CCCC(OCc3ccccc3)C2)cc1-c1ccccc1C)C(=O)O (some centres unmarked) [Example 989, N-[4-(3-benzyloxypiperidin-1-ylmethyl)-2-(2-methylphenyl)benzoyl]methionine]

inhibition at 0.1 µM [1]: 84%
Compound: CSCC[C@H](NC(=O)c1ccc(CN2CCCC(OCC3CCCCC3)C2)cc1-c1ccccc1C)C(=O)O (some centres unmarked) [Example 990, N-[4-(3-cyclohexylmethoxypiperidin-1-ylmethyl)-2-(2-methylphenyl)benzoyl]methionine]

inhibition at 0.01 µM [2]: 69%
Compound: CSCC[C@H](NC(=O)c1ccc(CN2CCC[C@H]2COc2ccccc2)cc1-c1ccccc1C)C(=O)O [Example 991, N-[4-(2-phenoxymethylpyrrolidin-1-ylmethyl)-2-(2-methylphenyl)benzoyl]methionine]

inhibition at 0.01 µM [2]: 93%
Compound: CSCC[C@H](NC(=O)c1ccc(CN2CCC[C@H]2COCC2CCCCC2)cc1-c1ccccc1C)C(=O)O [Example 992, N-[4-(2-cyclohexylmethoxymethylpyrrolidin-1-ylmethyl)-2-(2-methylphenyl)benzoyl]methionine]

inhibition at 0.1 µM [1]: 90%
Compound: CSCC[C@H](NC(=O)c1ccc(CN2CCC[C@@H]2COCc2ccccc2)cc1-c1ccccc1C)C(=O)O [Example 993, N-[4-(2-benzyloxymethylpyrrolidin-1-ylmethyl)-2-(2-methylphenyl)benzoyl]methionine]

% inhibition of farnesyltransferase at 1 × 10^-8 M (1 × 10^-8 M (Table 4)): 83%
Compound: CSCC[C@H](NC(=O)c1ccc(CO[C@H](CSC(C)(C)C)Cc2ccccc2)cc1-c1ccccc1C)C(=O)O [Example 994]

% inhibition of farnesyltransferase at 1 × 10^-8 M (1 × 10^-8 M (Table 4)): 92%
Compound: CCSC[C@H](CCc1ccccc1)NCc1ccc(C(=O)N[C@@H](CCSC)C(=O)O)c(-c2ccccc2C)c1 [Example 995]

% inhibition of farnesyltransferase at 1 × 10^-8 M (1 × 10^-8 M (Table 4)): 80%
Compound: CCCCS(=O)(=O)N(Cc1ccc(C(=O)N[C@@H](CCSC)C(=O)O)c(-c2ccccc2C)c1)CC1CCCCC1 [Example 996]

inhibition at 0.1 µM [3]: 92%
Compound: CSCC[C@H](NC(=O)c1ccc(/C=C/c2ccc(Oc3ccc(Cl)cc3)cc2)cc1-c1ccccc1C)C(=O)O [Example 1016, N-[4-(2-(4-(4-chlorophenoxy)phenyl)ethen-1-yl)-2-(2-methylphenyl)benzoyl]methionine lithium salt]

inhibition at 0.01 µM [4]: 91%
Compound: CSCC[C@H](NC(=O)c1ccc(CN2CCN(Cc3ccccc3)CC2)cc1-c1ccccc1C)C(=O)O [Example 1025]

Compound: CSCC[C@H](NC(=O)c1ccc(CN(CCF)CCC2CCCCC2)cc1-c1ccccc1C)C(=O)O [Example 1094]
% inhibition at 0.01 μM (**) [5]: 96%

inhibition at 0.01 µM [4]: 87%
Compound: CSCC[C@H](NC(=O)c1ccc(Cc2nnnn2Cc2ccccc2)cc1-c1ccccc1C)C(=O)O [Example 1099, N-[4-(1-benzyltetrazol-5-ylmethyl)-2-(2-methylphenyl)benzoyl]methionine]

inhibition at 0.01 µM [4]: 82%
Compound: CSCC[C@H](NC(=O)c1ccc(Cc2nnnn2CC2CCCCC2)cc1-c1ccccc1C)C(=O)O [Example 1100, N-[4-(1-cyclohexylmethyltetrazol-5-ylmethyl)-2-(2-methylphenyl)benzoyl]methionine]

inhibition at 0.1 µM [3]: 86%
Compound: CSCC[C@H](NC(=O)c1ccc(Cc2nnn(Cc3ccccc3)n2)cc1-c1ccccc1C)C(=O)O [Example 1101, N-[4-(2-benzyltetrazol-5-ylmethyl)-2-(2-methylphenyl)benzoyl]methionine]

inhibition at 0.01 µM [4]: 84%
Compound: CSCC[C@H](NC(=O)c1ccc(Cc2nnn(CC3CCCCC3)n2)cc1-c1ccccc1C)C(=O)O [Example 1102, N-[4-(2cyclohexylmethyltetrazol-5-ylmethyl)-2-(2-methylphenyl)benzoyl]methionine]

% inhibition at 0.01 μM (**) [5]: 89%
Compound: COCCN(CCC1CCCCC1)Cc1ccc(C(=O)N[C@@H](CCSC)C(=O)O)c(-c2ccccc2C)c1 [Example 1104]

inhibition at 0.01 µM [4]: 74%
Compound: CSCC[C@H](NC(=O)c1ccc(CN2CCOC[C@@H]2COCC2CCCCC2)cc1-c1ccccc1C)C(=O)O [Example 1109, N-[4-(3(S)-cyclohexylmethoxymethylmorpholin-4-ylmethyl)-2-(2-methylphenyl)benzoyl]methionine]

inhibition at 0.01 µM [4]: 63%
Compound: CSCC[C@H](NC(=O)c1ccc(CN2CCSC[C@H]2COCC2CCCCC2)cc1-c1ccccc1C)C(=O)O [Example 1111, N-[4-(3(R)-cyclohexylmethoxymethylthiomorpholin-4-ylmethyl)-2-(2-methylphenyl)benzoyl]methionine]

inhibition at 0.01 µM [4]: 83%
Compound: CSCC[C@H](NC(=O)c1ccc(CN2CC[C@H]2COCC2CCCCC2)cc1-c1ccccc1C)C(=O)O [Example 1114, N-[4-(2(S)-cyclohexylmethoxymethylazetidin-1-ylmethyl)-2-(2-methylphenyl)benzoyl]methionine]

inhibition at 0.1 µM [3]: 94%
Compound: CSCC[C@H](NC(=O)c1ccc(CN2CCC[C@H]2COc2cc(F)cc(F)c2)cc1-c1ccccc1C)C(=O)O [Example 1115, N-[4-(2(S)-(3,5-difluorolphenoxy)methylpyffolidin-1-ylmethyl)-2-(2-methylphenyl)benzoyl]methionine]

inhibition at 0.01 µM [4]: 91%
Compound: CSCC[C@H](NC(=O)c1ccc(CN2CCC[C@H]2COC2CCCCC2)cc1-c1ccccc1C)C(=O)O [Example 1116, N-[4-(2(S)-cyclohexyloxymethylpyrrolidin-1-ylmethyl)-2-(2-methylphenyl)benzoyl]methionine]
